Values quoted from earlier work as cited in patent US20060198926A1, “ALPHA-PYRONE COMPOSITION FOR CONTROLLING CRAVING AND AS A SUBSTITUTE FOR ALCOHOL” (priority 1999, published 2006).

Tested on: dopaminergic neurons of the nucleus accumbens
Conditions: administered in vivo by microdialysis into the nucleus accumbens (Baum 1998)

SMILES | levels of dopamine in the nucleus accumbens
COc1cc(/C=C/c2ccccc2)oc(=O)c1 [desmethoxyyangonin] | increase in dopamine
COc1ccc(/C=C/c2cc(OC)cc(=O)o2)cc1 [yangonin] | decreases dopamine to undetectable levels
